Experiments:
[1] = system: Geobacillus stearothermophilus spores (ATCC 7953); test: Fluorescence from enzyme substrates incubated with Geobacillus stearothermophilus spores in culture media; assay type: cell-based; details: 5×10^3 spores, substrate 0.1 mg/mL, 60° C.; for MEASURED FLUORESCENCE, RFU 10 sec: 360 nm excitation/450 nm emission
Protocol: Culture media was prepared by dissolving 5 g/L peptone C (BD 211921) and 12 g/L phytone peptone (BD BBL 211906) in deionized water. The pH was adjusted with 1 N NaOH or 0.1 N HCl, the media brought to volume, and then filter sterilized with a 0.22 micron PES filter. Stock solutions ([…]) of 8′-fluoro-4′-methylumbelliferyl-α-D-glucopyranoside, 6′-fluoro-4′-methylumbelliferyl-α-D-glucopyranoside, and 4-methylumbelliferyl-α-D-glucopyranoside were prepared in DMSO. The aforementioned substrates were added to culture media at a final concentration of 0.1 mg/ml and media were then 0.22 μm filter sterilized.
Culture media (pH 6) containing 8′-fluoro-4′-methylumbelliferyl-[…]-D-glucopyranoside (0.1 mg/mL) was added to two wells (100 microliters per well) of a black 96-well microtiter plate with (NUNC #165301, Thermo Fisher Scientific). A 5 microliter aqueous suspension containing 5×10^3 Geobacillus stearothermophilus spores (ATCC 7953) was added to each well of the microtiter plate. Next, the contents of each well were mixed using a multiple aspiration/delivery sequence with the pipet. […] The top of the plate was covered with an optically clear sealing film (product #4311971, Applied Biosystems Corporation, Foster City, California). The plate was warmed at 60° C. and shaken in a linear direction. Fluorescence readings (360 nm excitation/450 nm emission at 50% gain) were taken from the top of the plate. A reading was taken at an initial time point of 10 seconds and then at +1 minute intervals thereafter. A Synergy Neo2 fluorescence plate reader (BioTek Company, Winooski, Vermont) was used. In Table 1, the mean fluorescence values detected (RFU) at times of 10 seconds, +5 minutes, +10 minutes, and +30 minutes are reported. The mean fluorescence values detected for the control wells were 614 RFU at 10 seconds; 547 RFU at +5 minutes; 504 RFU at +10 minutes, and 438 RFU at +30 minutes.
Culture media (pH 7) containing 8′-fluoro-4′-methylumbelliferyl-[…]-D-glucopyranoside (0.1 mg/mL) was added to two wells (100 microliters per well) of a black 96-well microtiter plate with (NUNC #165301, Thermo Fisher Scientific). A 5 microliter aqueous suspension containing 5×10^3 Geobacillus stearothermophilus spores (ATCC 7953) was added to each well of the microtiter plate. Next, the contents of each well were mixed using a multiple aspiration/delivery sequence with the pipet. […] The top of the plate was covered with an optically clear sealing film (product #4311971, Applied Biosystems Corporation). The plate was warmed at 60° C. and shaken in a linear direction. Fluorescence readings (360 nm excitation/450 nm emission at 50% gain) were taken from the top of the plate. A reading was taken at an initial time point of 10 seconds and then at +1 minute intervals thereafter. A Synergy Neo2 fluorescence plate reader (BioTek Company) was used. In Table 2, the mean fluorescence values detected (RFU) at times of 10 seconds, +5 minutes, +10 minutes, and +30 minutes are reported. The mean fluorescence values detected for the control wells were 601 RFU at 10 seconds; 533 RFU at +5 minutes; 495 RFU at +10 minutes, and 430 RFU at +30 minutes.
Culture media (pH 8) containing 8′-fluoro-4′-methylumbelliferyl-[…]-D-glucopyranoside (0.1 mg/mL) was added to two wells (100 microliters per well) of a black 96-well microtiter plate with (NUNC #165301, Thermo Fisher Scientific). A 5 microliter aqueous suspension containing 5×10^3 Geobacillus stearothermophilus spores (ATCC 7953) was added to each well of the microtiter plate. Next, the contents of each well were mixed using a multiple aspiration/delivery sequence with the pipet. […] The top of the plate was covered with an optically clear sealing film (product #4311971, Applied Biosystems Corporation). The plate was warmed at 60° C. and shaken in a linear direction. Fluorescence readings (360 nm excitation/450 nm emission at 50% gain) were taken from the top of the plate. […]

[2] = system: Geobacillus stearothermophilus spores (ATCC 7953); test: as above; assay type: cell-based; details: substrate 0.1 mg/mL, 60° C.
[3] = pH 6 culture media, 5×10^3 spores
[4] = pH 6 culture media, 5×10^6 spores
[5] = pH 7 culture media, 5×10^3 spores
[6] = pH 7 culture media, 5×10^6 spores
[7] = pH 8 culture media, 5×10^3 spores
[8] = pH 8 culture media, 5×10^6 spores
[9] = pH 9 culture media, 5×10^3 spores
[10] = pH 9 culture media, 5×10^6 spores

| Structure (SMILES) | MEASURED FLUORESCENCE, RFU 10 sec ([1]; pH 6 culture media) [RFU] | MEASURED FLUORESCENCE, RFU +10 min ([1]; pH 6 culture media) [RFU] | MEASURED FLUORESCENCE, RFU +5 min ([1]; pH 7 culture media) [RFU] | MEASURED FLUORESCENCE, RFU +10 min ([1]; pH 7 culture media) [RFU] | MEASURED FLUORESCENCE, RFU +30 min ([1]; pH 7 culture media) [RFU] | MEASURED FLUORESCENCE, RFU +30 min ([1]; pH 8 culture media) [RFU] | MEASURED FLUORESCENCE, RFU +5 min [2, 3] [RFU] | MEASURED FLUORESCENCE, RFU +30 min [2, 3] [RFU] | MEASURED FLUORESCENCE, RFU 10 sec [2, 4] [RFU] | MEASURED FLUORESCENCE, RFU +5 min [2, 4] [RFU] | MEASURED FLUORESCENCE, RFU +10 min [2, 4] [RFU] | MEASURED FLUORESCENCE, RFU +30 min [2, 4] [RFU] | MEASURED FLUORESCENCE, RFU 10 sec [2, 5] [RFU] | MEASURED FLUORESCENCE, RFU 10 sec [2, 6] [RFU] | MEASURED FLUORESCENCE, RFU +5 min [2, 6] [RFU] | MEASURED FLUORESCENCE, RFU +10 min [2, 6] [RFU] | MEASURED FLUORESCENCE, RFU +30 min [2, 6] [RFU] | MEASURED FLUORESCENCE, RFU 10 sec [2, 7] [RFU] | MEASURED FLUORESCENCE, RFU +5 min [2, 7] [RFU] | MEASURED FLUORESCENCE, RFU +10 min [2, 7] [RFU] | other results |
| --- | --- | --- | --- | --- | --- | --- | --- | --- | --- | --- | --- | --- | --- | --- | --- | --- | --- | --- | --- | --- | --- |
| Cc1cc(=O)oc2c(F)c(O[C@H]3O[C@H](CO)[C@@H](O)[C@H](O)[C@H]3O)ccc12 [Example 1, 8′-Fluoro-4′-methylumbelliferyl […]-D-glucopyranoside] | 806 | 1909 | 1474 | 2681 | 10190 | 7477 | 1212 | 5600 | 30514 | 34348 | 32547 | 30518 | 886 | 49649 | 54906 | 52619 | 49458 | 729 | 971 | 1655 | MEASURED FLUORESCENCE, RFU 10 sec [2, 8]: 39958 RFU; MEASURED FLUORESCENCE, RFU +5 min [2, 8]: 58746 RFU; MEASURED FLUORESCENCE, RFU +10 min [2, 8]: 58909 RFU; MEASURED FLUORESCENCE, RFU +30 min [2, 8]: 55069 RFU; MEASURED FLUORESCENCE, RFU 10 sec [2, 9]: 655 RFU; MEASURED FLUORESCENCE, RFU +5 min [2, 9]: 663 RFU; MEASURED FLUORESCENCE, RFU +10 min [2, 9]: 831 RFU; MEASURED FLUORESCENCE, RFU +30 min [2, 9]: 2910 RFU; MEASURED FLUORESCENCE, RFU 10 sec [2, 10]: 15513 RFU; MEASURED FLUORESCENCE, RFU +5 min [2, 10]: 39862 RFU; MEASURED FLUORESCENCE, RFU +10 min [2, 10]: 55056 RFU; MEASURED FLUORESCENCE, RFU +30 min [2, 10]: 52276 RFU |
| Cc1cc(=O)oc2cc(O[C@H]3O[C@H](CO)[C@@H](O)[C@H](O)[C@H]3O)ccc12 [MUG, 4′-methylumbelliferyl-α-D-glucopyranoside] | 646 | 588 | 634 | 655 | 1219 | 1725 | 585 | 1210 | 4600 | 9209 | 10250 | 9996 | 676 | 10780 | 22443 | 26791 | 24911 | 704 | 661 | 700 | MEASURED FLUORESCENCE, RFU 10 sec [2, 8]: 12320 RFU; MEASURED FLUORESCENCE, RFU +5 min [2, 8]: 32993 RFU; MEASURED FLUORESCENCE, RFU +10 min [2, 8]: 51516 RFU; MEASURED FLUORESCENCE, RFU +30 min [2, 8]: 53517 RFU; MEASURED FLUORESCENCE, RFU 10 sec [2, 9]: 698 RFU; MEASURED FLUORESCENCE, RFU +5 min [2, 9]: 634 RFU; MEASURED FLUORESCENCE, RFU +10 min [2, 9]: 621 RFU; MEASURED FLUORESCENCE, RFU +30 min [2, 9]: 1153 RFU; MEASURED FLUORESCENCE, RFU 10 sec [2, 10]: 5777 RFU; MEASURED FLUORESCENCE, RFU +5 min [2, 10]: 19462 RFU; MEASURED FLUORESCENCE, RFU +10 min [2, 10]: 43381 RFU; MEASURED FLUORESCENCE, RFU +30 min [2, 10]: 64660 RFU |
| Cc1cc(=O)oc2cc(O[C@H]3O[C@H](CO)[C@@H](O)[C@H](O)[C@H]3O)c(F)cc12 [Example 6F-MUG, 6′-Fluoro-4′-methylumbelliferyl […]-D-glucopyranoside] | 886 | 1903 | 1130 | 1855 | 8708 | 5638 | 1200 | 6663 | 53357 | 60972 | 58039 | 55966 | 879 | 67489 | 80834 | 78888 | 75469 | 825 | 878 | 1204 | MEASURED FLUORESCENCE, RFU 10 sec [2, 8]: 49967 RFU; MEASURED FLUORESCENCE, RFU +5 min [2, 8]: 81623 RFU; MEASURED FLUORESCENCE, RFU +10 min [2, 8]: 85491 RFU; MEASURED FLUORESCENCE, RFU +30 min [2, 8]: 78890 RFU; MEASURED FLUORESCENCE, RFU 10 sec [2, 9]: 870 RFU; MEASURED FLUORESCENCE, RFU +5 min [2, 9]: 833 RFU; MEASURED FLUORESCENCE, RFU +10 min [2, 9]: 892 RFU; MEASURED FLUORESCENCE, RFU +30 min [2, 9]: 2376 RFU; MEASURED FLUORESCENCE, RFU 10 sec [2, 10]: 22519 RFU; MEASURED FLUORESCENCE, RFU +5 min [2, 10]: 56806 RFU; MEASURED FLUORESCENCE, RFU +10 min [2, 10]: 78179 RFU; MEASURED FLUORESCENCE, RFU +30 min [2, 10]: 76196 RFU |

Reference: US12486301B2, “8-fluoro-4-alkylumbelliferyl α-D-glucopyranoside, biological sterilization indicator including the same and its use in a method of determining efficacy of a sterilization process” (Solventum Intellectual Properties Company, priority 2019, dated 2025)
